From patent US20240239790A1, “7-Morpholino-1,6-Naphthyridin-5-yl Derivatives and Pharmaceutical Compositions Thereof Useful as DNA-PK Inhibitor” (adMare Therapeutics Society, priority 2021, published 2024)
Like-named read-outs stand apart in the source and are kept apart here. Values belong to the molecule of their own block, whether it stands above or below them.

Assays:
[1] = system: pH2AX induction in HCT116 ATM-/- multicellular tumour spheroids; experiment: Prodrug Radiation Sensitization in Multicellular Tumour Spheroids, inhibition of pH2AX induction following radiation; format: cell-based; conditions: Homo sapiens, HCT-116, 20 Gy
Experimental: Prodrug compounds were assayed to determine their potency in 3D multicellular spheroids in media maintained under 20% vs 5% oxygen. Multicellular tumour spheroids were grown to approximately 0.5 mm in diameter and irradiated with 20 Gy in combination with inhibitor test compounds to determine their potency using HCT 116 and FaDu cell lines. Experiments were carried out in 96 well plates containing 0.7 mls of MEM media containing 10% FBS and 10 mM glucose under 5% CO2 at 37° C. Following dilution of compounds 1:1000 from DMSO stocks, compounds were serially diluted from 10 μM down to 3.5 nM and 5-10 spheroids added. 96 well plates were constantly stirred to avoid spheroids settling during the course of the experiment. Endpoints were pDNA-PK (ser 2056) or pH2AX (ser 139) status in spheroid cryosections taken 1 or 2 hours following radiation and fixed immediately in formalin. Using tumour cell lines deficient in ATM improved the assay signal to noise and gH2AX readout. Using this assay prodrug activity could be compared in the more oxygenated outer spheroid layers versus less oxygenated hypoxic central cell layers.

[2] = system: FaDu cell line; experiment: Prodrug Activation in Hypoxic Stirred Tumour Cell Suspensions; conditions: 10 μM, 4 hours
[3] = molecular target: T1, DNA-PK phosphorylation at Serine 2056 (Homo sapiens, UniProt P78527); experiment: Cellular Assay for Inhibition of DNA-PK Phosphorylation at Serine 2056 in FaDu cells (sandwich ELISA, neocarzinostatin); format: cell-based; conditions: pSer2056 DNA-PK, Table 3
T1 construct: FaDu cells were purchased from ATCC; host or cells: FaDu
Experimental: FaDu cells were purchased from ATCC and maintained in MEM alpha medium (Life Technologies, cat. no. 12561) supplemented with 10% fetal bovine serum, and 1% GlutaMAX at 37° C. supplemented with 5% CO2. 50,000 cells were seeded to each well of a 96-well cell culture plate in 50 μL of culture medium and incubated for 16-24 hours. Three-fold serially diluted compounds were prepared in DMSO. Culture media was used to prepare compound treatments to 0.3% DMSO (dimethyl sulphoxide) content. Compound treatments were added to the cells for 1 hour prior incubation, followed by the addition of neocarzinostatin in fresh culture medium to 1 μg/mL final concentration for an additional 2 hours incubation to induce DNA DSBs (double-strand breaks). DMSO controls were incubated with fresh culture medium alone for the additional two hours incubation. The cells were then lysed and frozen at −20° C. Cell lysates were thawed on wet ice and protein concentrations quantified by BCA Protein Assay (Thermo #23225). Lysis buffer was used to normalize lysates by protein content and all lysates were then investigated by sandwich ELISA by means of DNA-PK-specific antibodies (Abcam ab44815: total DNA-PK; ab124918: phosphoserine-2056 DNA-PK) in sandwich ELISA format on the MSD S600MM platform (MesoScale Discovery). % inhibition was calculated for all data points: =1−(DATA_PT−AVERAGE(DMSO controls))/(AVERAGE(NCS controls)−AVERAGE(DMSO controls)). Logarithm of the molar concentration of compound was plotted against percent inhibition to calculate IC50 values, with curve fit settings for data fit to log(inhibitor) vs. normalized response—Variable slope using curve fit software (GraphPad Prism).

[4] = 5% O2, inner layers, read-out: Prodrug 5% O2 Inner layers EC50
[5] = 5% O2, outer layers, read-out: Prodrug 5% O2 Outer layers EC50
[6] = 20% O2, outer layers, read-out: Prodrug 20% O2 Outer layers EC50

Fraction of prodrug converted to active form, Hypoxic 0.2% O2 [2]: A (A is 0.15 to 1)
Fraction of prodrug converted to active form, Oxic 5% O2 [2]: B (B is 0.05 to 0.15)
SMILES: Cn1c(Cn2nnc(-c3cnc4cc(N5CCOCC5)nc(O[C@H]5CC[C@@H](Nc6ncccn6)CC5)c4c3)n2)cnc1[N+](=O)[O-] [LFA121, N-[4-[[3-[2-[(3-Methyl-2-nitro-imidazol-4-yl)methyl]tetrazol-5-yl]-7-morpholino-1,6-naphthyridin-5-yl]oxy]cyclohexyl]pyrimidin-2-amine]
EC50 [1, 4]: 0.5 to 1 µM
EC50 [1, 5]: 1 to 10 µM
EC50 [1, 6]: 1 to 10 µM

Fraction of prodrug converted to active form, Hypoxic 0.2% O2 [2]: A (A is 0.15 to 1)
Fraction of prodrug converted to active form, Oxic 5% O2 [2]: B (B is 0.05 to 0.15)
SMILES: Cn1c(Cn2nnc(-c3cnc4cc(N5CCOCC5)nc(O[C@H]5CC[C@@H](n6ccnc6)CC5)c4c3)n2)cnc1[N+](=O)[O-] [LFA123, 4-[5-(4-imidazol-1-ylcyclohexoxy)-3-[2-[(3-methyl-2-nitro-imidazol-4-yl)methyl]tetrazol-5-yl]-1,6-naphthyridin-7-yl]morpholine]
EC50 [1, 4]: 1 to 10 µM
EC50 [1, 5]: 1 to 10 µM
EC50 [1, 6]: 1 to 10 µM

Fraction of prodrug converted to active form, Hypoxic 0.2% O2 [2]: D (D is 0 to 0.02)
Fraction of prodrug converted to active form, Oxic 5% O2 [2]: D (D is 0 to 0.02)
SMILES: Cn1c(Cn2cnnc2-c2cnc3cc(N4CCOCC4)nc(OC4CCC(Nc5ncccn5)CC4)c3c2)cnc1[N+](=O)[O-] (stereo not drawn) [LFA135, N-[4-[[3-[4-[(3-Methyl-2-nitro-imidazol-4-yl)methyl]-1,2,4-triazol-3-yl]-7-morpholino-1,6-naphthyridin-5-yl]oxy]cyclohexyl]pyrimidin-2-amine]
EC50 [1, 4]: 1 to 10 µM
EC50 [1, 5]: 1 to 10 µM
EC50 [1, 6]: 1 to 10 µM

Fraction of prodrug converted to active form, Hypoxic 0.2% O2 [2]: B (B is 0.05 to 0.15)
Fraction of prodrug converted to active form, Oxic 5% O2 [2]: C (C is 0.02 to 0.05)
IC50 [3]: 10 to 30 µM
SMILES: COc1cccnc1N[C@H]1CC[C@@H](Oc2nc(N3CCOCC3)cc3ncc(N(Cc4cnc([N+](=O)[O-])n4C)S(C)(=O)=O)cc23)CC1 [LFA2009, N-[5-[4-[(3-methoxy-2-pyridyl)amino]cyclohexoxy]-7-morpholino-1,6-naphthyridin-3-yl]-N-[(3-methyl-2-nitro-imidazol-4-yl)methyl]methanesulfonamide]
EC50 [1, 4]: 1 to 10 µM
EC50 [1, 5]: 1 to 10 µM
EC50 [1, 6]: 1 to 10 µM

IC50 [3]: < 0.1 µM
SMILES: CN1CCN(CCc2cnc(N[C@H]3CC[C@@H](Oc4nc(N5CCOCC5)cc5ncc(NS(C)(=O)=O)cc45)CC3)nc2)CC1 [LFA2031, N-[5-[4-[[5-[2-(4-methylpiperazin-1-yl)ethyl]pyrimidin-2-yl]amino]cyclohexoxy]-7-morpholino-1,6-naphthyridin-3-yl]methanesulfonamide]

IC50 [3]: < 0.1 µM
SMILES: CN1CCN(c2cnc(N[C@H]3CC[C@@H](Oc4nc(N5CCOCC5)cc5ncc(NS(C)(=O)=O)cc45)CC3)nc2)CC1 [LFA2032, N-[5-[4-[[5-(4-methylpiperazin-1-yl)pyrimidin-2-yl]amino]cyclohexoxy]-7-morpholino-1,6-naphthyridin-3-yl]methanesulfonamide]

IC50 [3]: < 0.1 µM
SMILES: CN1CCC(Oc2cnc(N[C@H]3CC[C@@H](Oc4nc(N5CCOCC5)cc5ncc(O)cc45)CC3)nc2)C1 (stereo partly drawn) [LFA2033, 5-[4-[[5-(1-methylpyrrolidin-3-yl)oxypyrimidin-2-yl]amino]cyclohexoxy]-7-morpholino-1,6-naphthyridin-3-ol]

IC50 [3]: < 0.1 µM
SMILES: CN1CCN(CCOc2cnc(N[C@H]3CC[C@@H](Oc4nc(N5CCOCC5)cc5ncc(O)cc45)CC3)nc2)CC1 [LFA2034, 5-[4-[[5-[2-(4-methylpiperazin-1-yl)ethoxy]pyrimidin-2-yl]amino]cyclohexoxy]-7-morpholino-1,6-naphthyridin-3-ol]

IC50 [3]: < 0.1 µM
SMILES: Oc1cnc2cc(N3CCOCC3)nc(O[C@H]3CC[C@@H](Nc4ncc(OCCN5CCOCC5)cn4)CC3)c2c1 [LFA2035, 7-morpholino-5-[4-[[5-(2-morpholinoethoxy)pyrimidin-2-yl]amino]cyclohexoxy]-1,6-naphthyridin-3-ol]

IC50 [3]: < 0.1 µM
SMILES: CN1CC[C@H](Oc2cnc(N[C@H]3CC[C@@H](Oc4nc(N5CCOCC5)cc5ncc(NS(C)(=O)=O)cc45)CC3)nc2)C1 [LFA2036, N-[5-[4-[[5-[(3S)-1-methylpyrrolidin-3-yl]oxypyrimidin-2-yl]amino]cyclohexoxy]-7-morpholino-1,6-naphthyridin-3-yl] methanesulfonamide]

IC50 [3]: < 0.1 µM
SMILES: CN1CC[C@@H](Oc2cnc(N[C@H]3CC[C@@H](Oc4nc(N5CCOCC5)cc5ncc(NS(C)(=O)=O)cc45)CC3)nc2)C1 [LFA2037, N-[5-[4-[[5-[(3R)-1-methylpyrrolidin-3-yl]oxypyrimidin-2-yl]amino]cyclohexoxy]-7-morpholino-1,6-naphthyridin-3-yl] methanesulfonamide]

IC50 [3]: < 0.1 µM
SMILES: Cc1nc(N[C@H]2CC[C@@H](Oc3nc(N4CCOCC4)cc4ncc(NS(C)(=O)=O)cc34)CC2)ncc1N1CCN(C)CC1 [LFA2038, N-[5-[4-[[4-methyl-5-(4-methylpiperazin-1-yl)pyrimidin-2-yl]amino]cyclohexoxy]-7-morpholino-1,6-naphthyridin-3-yl]methanesulfonamide]

IC50 [3]: < 0.1 µM
SMILES: Cc1nc(N[C@H]2CC[C@@H](Oc3nc(N4CCOCC4)cc4ncc(NS(C)(=O)=O)cc34)CC2)ncc1OCCN1CCN(C)CC1 [LFA2039, N-[5-[4-[[4-methyl-5-[2-(4-methylpiperazin-1-yl)ethoxy]pyrimidin-2-yl]amino]cyclohexoxy]-7-morpholino-1,6-naphthyridin-3-yl]methanesulfonamide]

IC50 [3]: < 0.1 µM
SMILES: Cc1nc(N[C@H]2CC[C@@H](Oc3nc(N4CCOCC4)cc4ncc(NS(C)(=O)=O)cc34)CC2)ncc1OCCN1CCOCC1 [LFA2040, N-[5-[4-[[4-methyl-5-(2-morpholinoethoxy)pyrimidin-2-yl]amino]cyclohexoxy]-7-morpholino-1,6-naphthyridin-3-yl]methanesulfonamide]

IC50 [3]: < 0.1 µM
SMILES: CN1CCc2nc(N[C@H]3CC[C@@H](Oc4nc(N5CCOCC5)cc5ncc(O)cc45)CC3)ncc2C1 [LFA2078, 5-[4-[(6-methyl-7,8-dihydro-5H-pyrido[4,3-d]pyrimidin-2-yl)amino]cyclohexoxy]-7-morpholino-1,6-naphthyridin-3-ol]

IC50 [3]: < 0.1 µM
SMILES: CN(C)CCOc1cnc(N[C@H]2CC[C@@H](Oc3nc(N4CCOCC4)cc4ncc(O)cc34)CC2)nc1 [LFA2079, 5-[4-[[5-[2-(dimethylamino)ethoxy]pyrimidin-2-yl]amino]cyclohexoxy]-7-morpholino-1,6-naphthyridin-3-ol]

IC50 [3]: < 0.1 µM
SMILES: CN1CCN(c2cnc(N[C@H]3CC[C@@H](Oc4nc(N5CCOCC5)cc5ncc(O)cc45)CC3)nc2)CC1 [LFA2080, 5-[4-[[5-(4-methylpiperazin-1-yl)pyrimidin-2-yl]amino]cyclohexoxy]-7-morpholino-1,6-naphthyridin-3-ol]

IC50 [3]: 10 to 30 µM
SMILES: Cn1c(COc2cnc3cc(N4CCOCC4)nc(O[C@H]4CC[C@@H](Nc5nccnc5C#N)CC4)c3c2)cnc1[N+](=O)[O-] [LFA2095, 3-[[4-[[3-[(3-methyl-2-nitro-imidazol-4-yl)methoxy]-7-morpholino-1,6-naphthyridin-5-yl]oxy]cyclohexyl]amino]pyrazine-2-carbonitrile]

IC50 [3]: 10 to 30 µM
SMILES: CC(Oc1cnc2cc(N3CCOCC3)nc(O[C@H]3CC[C@@H](Nc4cncc(C(F)(F)F)n4)CC3)c2c1)c1cnc([N+](=O)[O-])n1C (stereo partly drawn) [LFA2096, N-[4-[[3-[1-(3-methyl-2-nitro-imidazol-4-yl)ethoxy]-7-morpholino-1,6-naphthyridin-5-yl]oxy]cyclohexyl]-6-(trifluoromethyl)pyrazin-2-amine]
